Laboratory results taken from patent US6403630B1, “Treating cancers associated with overexpression of HER-2/neu” (Cornell Research Foundation, Inc., priority 1999, dated 2002).

Legend:
[1] = test system: HER-2/neu positive breast cancer; test: Adjuvant therapy of a patient with HER-2/neu positive breast cancer; format: in vivo, human
Protocol: A patient with HER-2/neu positive breast cancer is treated with Celebrex® for adjuvant therapy at an oral dose of 400 mg twice a day for five years after a mastectomy. […] The same result is obtained when the Celebrex® is replaced with an oral dose of 50 mg per day of Vioxx® for five years.
The patient also received an oral dose of 400 mg Celebrex® twice daily for one year or an oral dose of 50 mg Vioxx® daily for one year.

[2] = test system: HER-2/neu positive colon cancer; test: Treatment of a patient after resection of HER-2/neu positive colon cancer; format: in vivo, human; conditions: cancer localized to bowel wall, oral Celebrex 400 mg twice a day or Vioxx 50 mg per day for five years
Protocol: A patient undergoes resection of colon cancer which proves to be HER-2/neu positive. The colon cancer is found to be localized to the bowel wall; there is no evidence of extracolonic cancer. The patient is treated with Celebrex® at oral dose of 400 mg twice a day for five years or an oral dose of Vioxx® at 50 mg per day for five years.

[3] = test system: HER-2/neu positive breast cancer that has metastasized; test: Treatment of a patient with metastasized HER-2/neu positive breast cancer; format: in vivo, human
Protocol: Breast cancer is determined to have metastasized to lung and liver three years after a mastectomy is performed on a patient with HER-2/neu positive breast cancer. The patient is treated with oral doses of Celebrex® of 400 mg twice a day or of Vioxx® of 50 mg per day.
After three months, the Celebrex® or Vioxx® was continued in combination regimen with Taxol® at a dose of 175 mg/m^2 administered intravenously every three weeks.
Breast cancer is determined to have metastasized to bone nine years after a mastectomy is performed on a patient with HER-2/neu positive breast cancer.
After 90 days, oral cyclophosphamide at a dose of 3 mg/kg/day and doxoribicin administered intravenously weekly at a dose of 20 mg/m^2, are added to the drug regimen.

COX-2 in 184B5/HER cells = test: Amounts of COX-2 in 184B5/HER cells after treatment with MAP kinase inhibitors; format: cell-based, human
Text: The cells used were 184B5 and 184B5/HER cell lines. They were obtained from a collaborator. The 184B5 cell line is an immortalized but nontumorogenic human breast epithelial cell line that was established from a reduction mammoplasty and is described in Stampfer, M. R., et al., Proc. Natl. Acad. Sci. USA 82, 2394-2398 (1985). The 184B5/HER cell line was derived by stably transfecting 184B5 cells with a mutationally activated human HER-2/neu oncogene; these cells form rapidly growing tumors when injected into athymic nude mice. The 184B5/HER cell line is described in Pierce, J. H., et al., Oncogene 6, 1189-1194(1991). Cells were maintained in MEM (from Life Technologies, Inc. of Grand Island, N.Y.)—KBM, i.e., kerotinocyte basal medium (from Clonetics Corp. of San Diego, Calif.), mixed in a ratio of 1:1. […]
Western blotting was carried out to determine whether the differences in PGE2 production were related to differences in amounts of COX enzymes. […] The protein concentration of the supernatant was measured as described in Lowry, O. H., et al., J. Biol. Chem. 193, 265-275 (1951). […]
The activity of p44/42 MAP kinase was measured using a nonradioactive method where the assay was performed with a p44/42 MAP kinase activity kit obtained from New England Biolabs (of Beverly, Mass.) using the manufacturer's instructions. […]

[4] = adjuvant therapy alone, oral, five years after a mastectomy (Celebrex 400 mg twice a day; Vioxx 50 mg per day)
[5] = adjuvant therapy with HERCEPTIN (250 mg IV loading, 10 weekly 125 mg IV), oral Celebrex 400 mg twice daily or Vioxx 50 mg daily for one year
[6] = metastasized to bone, after failure of prior chemotherapy, oral Celebrex 400 mg twice a day or Vioxx 50 mg per day plus HERCEPTIN
[7] = metastasized to bone, after 90 days oral cyclophosphamide 3 mg/kg/day and weekly IV doxorubicin 20 mg/m^2 added to the COX-2 inhibitor plus HERCEPTIN regimen
[8] = metastasized to lung and liver, after three months continued in combination with Taxol 175 mg/m^2 IV every three weeks
[9] = metastasized to lung and liver, oral Celebrex 400 mg twice a day or Vioxx 50 mg per day alone

SMILES | Recurrence of breast cancer [1, 4] | Recurrence of breast cancer [1, 5] | Recurrence of colon cancer [2] | tumor burden [3, 6] | tumor burden [3, 7] | tumor burden [3, 8] | tumor burden [3, 9] | amounts of COX-2 (COX-2 in 184B5/HER cells)
Cc1ccc(-c2cc(C(F)(F)F)nn2-c2ccc(S(N)(=O)=O)cc2)cc1 [Celebrex®, 4-[5-(4-Methylphenyl)-3-(trifluoromethyl)-1H-pyrazol-1-yl]benzenesulfonamide] | does not occur | does not occur | does not occur | reduced tumor burden | still further reduced tumor burden | further reduced tumor burden | reduced tumor burden | 
COc1cccc(-c2cc(=O)c3ccccc3o2)c1N [PD 98059, 2′-amino-3′-methoxyflavone] |  |  |  |  |  |  |  | decrease
Oc1ccc(-c2nc(-c3ccc(F)cc3)c(-c3ccncc3)[nH]2)cc1 [SB 202190, 4-(4-fluorophenyl)-2-(4-hydroxyphenyl)-5-(4-pyridyl)-1H-imidazole] |  |  |  |  |  |  |  | down-regulated
CS(=O)(=O)c1ccc(C2=C(c3ccccc3)C(=O)OC2)cc1 [Vioxx®, 3-(Phenyl)-4-(4-(methylsulfonyl)phenyl)-2-(5H)-furanone] | does not occur | does not occur | does not occur | reduced tumor burden | still further reduced tumor burden | further reduced tumor burden | reduced tumor burden | 
